# From patent US10550080B2 (BRISTOL-MYERS SQUIBB COMPANY, priority 2016, dated 2020)
# Columns and labels:
# NaV1.5 = NaV1.5 (Homo sapiens (Human), UniProt Q14524); test: Automated electrophysiology, IonWorks Barracuda population patch clamp, NaV1.5 current (inactivated-state protocol); format: cell-based; conditions: HEK 293 cells expressing NaV1.5; read-out: NaV1.5 Barra IC50
# Method: (§1) Automated Electrophysiology: Ion Works Barracuda population patch clamp (PPC). PPC measurements were performed using an IonWorks Barracuda instrument (Molecular Devices Corporation, Union City, Calif.) using either PatchPlate™ PPC substrates (Molecular Devices Corporation) with 64 apertures per well. The ability to average currents from 64 recordings from each well greatly improves data consistency and recording success rates in the measurement of NaV1.7 mediated ionic currents. Calculated leak current was digitally subtracted from the total cell NaV1.7 current for each sample point acquired.
# (§2) NaV1.7 currents were elicited by a voltage clamp protocol designed to bias the NaV1.7 channels to their inactivated state as follows. From holding potential of −60 mV cells were briefly hyperpolarized to −100 mV for 1.25 sec, then stepped to −20 mV for 20 sec to inactivate the channels. This was followed by a relatively brief hyperpolarization to −100 mv for 300 ms, then a 20 msec test pulse to −20 mV to elicit the NaV1.7 current used to measure the pharmacology of all test compounds. Compounds were incubated for 600 sec between the pre- and post-compound reads. The external recording solution used was (in mM) 137 NaCl, 4 KCl, 1 MgCl2, 1.8 CaCl2, 10 Hepes, 10 glucose, pH to 7.4 with NaOH, and the internal solution used was (in mM) 100 K-gluconate, 40 KCl, 3.2 zMgCl2, 5 EGTA, 10 HEPES pH to 7.2 with KOH. The same solutions were used to record NaV1.5 currents, with the following voltage clamp protocol. NaV1.5 currents were elicited by a voltage clamp protocol designed to bias the NaV1.5 channels to their inactivated state as follows. From holding potential of −40 mV cells were briefly hyperpolarized to −100 mV for 300 ms, then stepped to −10 mV for 20 sec to inactivate the channels. This was followed by a relatively brief hyperpolarization to −100 mv for 30 ms, then a 20 msec test pulse to −10 mV to elicit the NaV1.5 current used to measure the pharmacology of all test compounds.
# (§3) HEK 293 cells expressing NaV1.7 and NaV1.5 channels, were used (Essen Biosciences, Ann Arbor, Mich.). Cells were cultured in T-175 flasks and passaged every 2 to 3 days at 1:3 to 1:6 seeding density dilutions. Cells were grown to 70% to 90% confluence in a flask and removed from the incubator (37° C., 5% CO2) 1 to 3 days after plating. Growth medium was aspirated from the culture flasks. Cells were gently rinsed with 10 ml of PBS (Catalog number: 14190144, Gibco) to remove residual media. Next a total of 2 mL TrypLE (Gibco) solution was added, and the flasks containing cells were sat for 3 min at RT, after which, the cells became visibly rounded and were easily dislodged from the bottom of the flask with a few brief taps on a solid surface. A total of 8 mL of media was added to the flask to inactivate the TrypLE, and the mixture was centrifuged at 910 rpm for 4 min. The cell supernatant was decanted, and the cell pellets were resuspended in 5-6 mL of external solution followed by gentle triturations using a 10 ml pipette, and transferred to a 15 ml conical tube and immediately brought to the IW Barracuda instrument.
# (§4) Peak membrane currents were analyzed with IW Barracuda software and exported to Excel for further analysis. Concentration response curve fitting was performed with BMS in-house software. IC50 values were obtained by fits of the Hill equation to the average percent inhibition data plotted versus compound concentration. […] Results are reported in Table 1 (NaV1.7 Barra IC50 in nM and NaV1.5 Barra IC50 in nM).
# hNaV1.7 = hNaV1.7 (Homo sapiens (Human), UniProt Q15858); test: Ligand Binding Assay (LBA), radioligand displacement on hNaV1.7 HEK293 cell membranes; conditions: 0.5 nM [3H] radioligand, 24 hours at room temperature; read-out: NaV1.7 LBA IC50
# Method: Ligand Binding Assay (LBA): hNaV1.7 binding affinities were determined with a filtration binding assay using purified membranes from HEK293 cells stably expressing hNaV1.7. HEK293 cells from a 10-stack cell culture flask (approximately 10^10 cells) were dissociated, frozen, and stored at −80° C. To prepare membranes, the frozen cell pellet was thawed and suspended in 6 ml hypotonic lysis buffer (50 mM HEPES, 0.1% mammalian protease inhibitor cocktail). 1 ml of resuspended cells was added to an additional 6 ml of lysis buffer and homogenized with 30 strokes of a tight pestle in a glass homogenizer. Homogenate was centrifuged at 1000×g for 10 minutes at 4° C. and the resulting supernatant was further centrifuged at 38,500×g for 60 minutes at 4° C. The resulting pellet was resuspended in binding buffer (50 mM HEPES, 130 mM NaCl, 5.4 mM KCl, 0.8 mM MgCl2, 5 mM glucose, pH 7.4) and needle homogenized with a 25 gauge needle. Protein concentration was determined with a BCA protein assay. Purified membranes were aliquoted, flash frozen in an ethyl alcohol dry ice bath, and stored at −80° C. To measure displacement of a radiolabeled ligand, 50 μg of purified hNaV1.7 HEK cell membranes were incubated with test compounds (eight concentrations, in duplicate) and 0.5 nM [3H] labeled radioligand in a 96 well plate for 24 hours at room temperature on a shaker. The total binding reaction volume was 250 μl, consisting of 200 μl purified hNaV1.7 HEK cell membranes, 25 μl test compound, and 25 μl radioligand. Non-specific binding was defined by 20 μM of a reference hNaV1.7 inhibitor. Binding reactions were terminated by filtration through GF/B filters presoaked in 0.5% polyethyleneamine. Filters were washed 5 times with 2 ml each of 4′C wash buffer (50 mM Tris-HCl, pH 7.4 at 4° C.). Bound radioactivity captured on the filters was counted on a liquid scintillation counter. Specific binding, expressed as % inhibition, was fit with Graphpad Prism software to determine binding IC50 values. Results are reported in Table 1 (NaV1.7 LBA IC50 in nM).
# NaV1.7 = NaV1.7 (Homo sapiens (Human), UniProt Q15858); test: Automated electrophysiology, IonWorks Barracuda population patch clamp, NaV1.7 current (inactivated-state protocol); format: cell-based; conditions: HEK 293 cells expressing NaV1.7; 600 sec compound incubation; read-out: NaV1.7 Barra IC50
# Method: as §1, §2, §3, §4
# NaV1.5, sequence (Q14524 whole entry): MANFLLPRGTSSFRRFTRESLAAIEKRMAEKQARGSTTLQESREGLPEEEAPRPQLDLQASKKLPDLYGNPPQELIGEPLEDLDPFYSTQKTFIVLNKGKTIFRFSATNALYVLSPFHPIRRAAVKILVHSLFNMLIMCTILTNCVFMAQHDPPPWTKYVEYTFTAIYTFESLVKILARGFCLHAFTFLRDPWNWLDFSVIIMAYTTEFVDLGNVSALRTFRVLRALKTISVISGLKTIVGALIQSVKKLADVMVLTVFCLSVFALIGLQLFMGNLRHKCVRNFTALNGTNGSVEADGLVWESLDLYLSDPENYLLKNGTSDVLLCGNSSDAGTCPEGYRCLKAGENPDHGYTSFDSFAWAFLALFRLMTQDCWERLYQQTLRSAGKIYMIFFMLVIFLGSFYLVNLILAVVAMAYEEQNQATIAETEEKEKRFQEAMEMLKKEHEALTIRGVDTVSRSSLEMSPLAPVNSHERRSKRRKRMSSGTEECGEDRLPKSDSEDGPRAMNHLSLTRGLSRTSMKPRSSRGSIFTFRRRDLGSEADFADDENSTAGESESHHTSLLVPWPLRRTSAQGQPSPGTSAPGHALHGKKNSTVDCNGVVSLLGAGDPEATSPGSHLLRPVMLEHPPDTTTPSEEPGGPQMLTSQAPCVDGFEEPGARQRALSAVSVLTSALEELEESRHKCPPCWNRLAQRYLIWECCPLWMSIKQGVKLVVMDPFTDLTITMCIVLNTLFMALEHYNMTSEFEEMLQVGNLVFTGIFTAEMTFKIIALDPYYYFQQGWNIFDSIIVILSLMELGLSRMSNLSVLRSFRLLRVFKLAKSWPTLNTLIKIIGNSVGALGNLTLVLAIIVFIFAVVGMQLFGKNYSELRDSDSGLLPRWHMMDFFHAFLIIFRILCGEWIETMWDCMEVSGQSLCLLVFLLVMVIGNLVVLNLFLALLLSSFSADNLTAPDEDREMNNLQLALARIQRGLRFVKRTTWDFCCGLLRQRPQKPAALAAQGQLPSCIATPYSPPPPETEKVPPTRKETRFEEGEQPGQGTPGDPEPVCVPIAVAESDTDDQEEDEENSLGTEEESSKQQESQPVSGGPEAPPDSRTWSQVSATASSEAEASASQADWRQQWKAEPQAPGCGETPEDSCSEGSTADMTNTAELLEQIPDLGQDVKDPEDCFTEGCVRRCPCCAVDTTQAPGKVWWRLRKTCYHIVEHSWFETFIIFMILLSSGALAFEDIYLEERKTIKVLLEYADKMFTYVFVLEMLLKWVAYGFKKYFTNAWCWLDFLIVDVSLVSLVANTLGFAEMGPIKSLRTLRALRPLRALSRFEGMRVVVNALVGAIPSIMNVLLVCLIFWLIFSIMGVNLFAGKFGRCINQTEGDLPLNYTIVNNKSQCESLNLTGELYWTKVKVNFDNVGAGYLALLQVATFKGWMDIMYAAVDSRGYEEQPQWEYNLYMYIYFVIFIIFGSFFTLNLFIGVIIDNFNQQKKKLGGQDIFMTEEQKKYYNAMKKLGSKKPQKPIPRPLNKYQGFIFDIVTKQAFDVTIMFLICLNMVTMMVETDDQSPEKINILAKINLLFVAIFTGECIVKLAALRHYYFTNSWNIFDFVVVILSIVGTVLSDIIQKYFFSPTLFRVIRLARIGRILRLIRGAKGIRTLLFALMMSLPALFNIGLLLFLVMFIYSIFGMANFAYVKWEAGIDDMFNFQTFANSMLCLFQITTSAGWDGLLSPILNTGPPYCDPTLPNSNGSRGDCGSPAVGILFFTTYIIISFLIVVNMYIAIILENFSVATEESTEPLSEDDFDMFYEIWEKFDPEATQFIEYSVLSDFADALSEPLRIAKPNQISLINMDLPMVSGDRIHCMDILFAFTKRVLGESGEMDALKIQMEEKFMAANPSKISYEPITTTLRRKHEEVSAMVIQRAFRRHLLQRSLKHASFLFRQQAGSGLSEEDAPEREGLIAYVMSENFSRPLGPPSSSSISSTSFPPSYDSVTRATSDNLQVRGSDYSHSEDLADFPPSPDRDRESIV
# NaV1.7, sequence (Q15858 whole entry): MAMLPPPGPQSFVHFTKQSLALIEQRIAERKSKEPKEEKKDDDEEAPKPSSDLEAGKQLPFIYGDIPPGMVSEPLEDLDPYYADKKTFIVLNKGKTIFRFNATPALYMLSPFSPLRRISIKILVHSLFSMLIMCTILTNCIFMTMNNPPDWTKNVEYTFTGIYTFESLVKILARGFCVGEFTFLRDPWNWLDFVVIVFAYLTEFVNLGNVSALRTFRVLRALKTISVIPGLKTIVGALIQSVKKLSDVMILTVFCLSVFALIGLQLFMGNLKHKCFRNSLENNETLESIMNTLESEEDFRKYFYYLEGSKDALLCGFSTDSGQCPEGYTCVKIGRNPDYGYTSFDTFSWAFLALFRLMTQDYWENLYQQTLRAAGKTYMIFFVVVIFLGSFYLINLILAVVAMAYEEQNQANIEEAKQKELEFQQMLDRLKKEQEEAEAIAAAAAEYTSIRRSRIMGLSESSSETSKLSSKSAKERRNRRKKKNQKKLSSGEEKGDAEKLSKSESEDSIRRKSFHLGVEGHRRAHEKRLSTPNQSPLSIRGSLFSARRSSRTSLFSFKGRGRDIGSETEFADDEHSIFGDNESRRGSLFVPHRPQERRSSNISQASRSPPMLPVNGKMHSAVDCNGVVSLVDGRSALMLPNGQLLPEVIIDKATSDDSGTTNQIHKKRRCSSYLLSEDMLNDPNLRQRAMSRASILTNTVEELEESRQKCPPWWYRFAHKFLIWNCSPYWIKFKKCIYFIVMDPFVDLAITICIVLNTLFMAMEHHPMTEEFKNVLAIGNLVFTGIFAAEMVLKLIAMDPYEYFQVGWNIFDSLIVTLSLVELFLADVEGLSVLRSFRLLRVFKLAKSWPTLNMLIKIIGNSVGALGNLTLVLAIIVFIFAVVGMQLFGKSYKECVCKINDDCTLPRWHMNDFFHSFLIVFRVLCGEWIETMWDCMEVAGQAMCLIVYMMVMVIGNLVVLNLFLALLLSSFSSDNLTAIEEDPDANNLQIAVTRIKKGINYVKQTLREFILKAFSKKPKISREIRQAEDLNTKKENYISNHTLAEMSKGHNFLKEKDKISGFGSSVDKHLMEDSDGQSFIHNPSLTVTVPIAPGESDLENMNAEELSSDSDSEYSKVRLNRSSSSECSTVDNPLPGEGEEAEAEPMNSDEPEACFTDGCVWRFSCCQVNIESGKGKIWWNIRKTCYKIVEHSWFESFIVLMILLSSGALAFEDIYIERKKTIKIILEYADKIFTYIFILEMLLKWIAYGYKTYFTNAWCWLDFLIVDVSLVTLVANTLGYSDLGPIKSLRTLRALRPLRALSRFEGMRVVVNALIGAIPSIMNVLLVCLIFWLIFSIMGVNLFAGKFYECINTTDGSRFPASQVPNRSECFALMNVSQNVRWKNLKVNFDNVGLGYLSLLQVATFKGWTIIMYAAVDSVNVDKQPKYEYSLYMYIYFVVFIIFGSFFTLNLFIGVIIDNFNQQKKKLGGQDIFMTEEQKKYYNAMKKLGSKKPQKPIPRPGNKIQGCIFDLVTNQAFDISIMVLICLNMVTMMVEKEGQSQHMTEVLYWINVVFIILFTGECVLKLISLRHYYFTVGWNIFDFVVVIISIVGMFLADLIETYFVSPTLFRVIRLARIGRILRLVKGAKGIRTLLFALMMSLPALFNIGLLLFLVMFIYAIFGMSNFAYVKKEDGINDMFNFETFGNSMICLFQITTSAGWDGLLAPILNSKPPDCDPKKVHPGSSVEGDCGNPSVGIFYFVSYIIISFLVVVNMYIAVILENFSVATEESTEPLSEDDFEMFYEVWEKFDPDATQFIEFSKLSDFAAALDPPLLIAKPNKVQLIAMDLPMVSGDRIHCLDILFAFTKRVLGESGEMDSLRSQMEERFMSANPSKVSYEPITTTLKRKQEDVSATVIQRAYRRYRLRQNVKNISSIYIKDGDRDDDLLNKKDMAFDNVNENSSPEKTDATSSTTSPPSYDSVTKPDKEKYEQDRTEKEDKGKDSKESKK
# hNaV1.7, sequence (Q15858 whole entry): as above
Structure (SMILES),IC50 (NaV1.5) [µM],IC50 (hNaV1.7) [nM],IC50 (NaV1.7) [nM]
"CC(C)c1cccc(-c2cn(C)c3cc(C(=O)NS(C)(=O)=O)ccc23)c1 [Example 16, 3-(3-Isopropylphenyl)-1-methyl-N-(methylsulfonyl)-1H-indole-6-carboxamide]",> 30,217,427
"CCc1cccc(-c2cn(C)c3cc(C(=O)NS(C)(=O)=O)ccc23)c1 [Example 17, 3-(3-Ethylphenyl)-1-methyl-N-(methylsulfonyl)-1H-indole-6-carboxamide]",> 30,440,220
"Cn1cc(-c2ccc(C(F)(F)F)cc2)c2ccc(C(=O)NS(=O)(=O)C3CC3)cc21 [Example 18, N-(cyclopropylsulfonyl)-1-methyl-3-(4-(trifluoromethyl)phenyl)-1H-indole-6-carboxamide]",8.72,77,109
"Cn1cc(-c2ccc(C(F)(F)F)cc2)c2ccc(C(=O)NS(=O)(=O)C(F)(F)F)cc21 [Example 19, 1-Methyl-3-(4-(trifluoromethyl)phenyl)-N-((trifluoromethyl)sulfonyl)-1H-indole-6-carboxamide]",7.48,1080,812
"Cn1cc(-c2ccc(C(F)(F)F)cc2)c2ccc(C(=O)NS(=O)(=O)c3cccs3)cc21 [Example 20, 1-Methyl-N-(thiophen-2-ylsulfonyl)-3-(4-(trifluoromethyl)phenyl)-1H-indole-6-carboxamide]",3.86,361,419
"Cn1cc(-c2ccc(C(F)(F)F)cc2)c2ccc(C(=O)NS(=O)(=O)c3ccc(F)c(F)c3)cc21 [Example 21, N-((3,4-difluorophenyl)sulfonyl)-1-methyl-3-(4-(trifluoromethyl)phenyl)-1H-indole-6-carboxamide]",18.1,> 30000,> 30000
"CC(C)COc1ccc(-c2cn(C)c3cc(C(=O)NS(C)(=O)=O)ccc23)cn1 [Example 23, 3-(6-Isobutoxypyridin-3-yl)-1-methyl-N-(methylsulfonyl)-1H-indole-6-carboxamide]",> 30,468,183
"CC(C)COc1ncc(-c2cn(C)c3cc(C(=O)NS(=O)(=O)C4CC4)ccc23)cc1Cl [Example 24, 3-(5-Chloro-6-isobutoxypyridin-3-yl)-N-(cyclopropylsulfonyl)-1-methyl-1H-indole-6-carboxamide]",12,22,294
"CC(C)COc1ncc(-c2cn(C(C)C)c3cc(C(=O)NS(C)(=O)=O)ccc23)cc1Cl [Example 29, 3-(5-Chloro-6-isobutoxypyridin-3-yl)-1-isopropyl-N-(methylsulfonyl)-1H-indole-6-carboxamide]",1.49,89,703
"Cn1cc(-c2ccc(C(F)F)cc2)c2ccc(C(=O)NS(C)(=O)=O)cc21 [Example 30, 3-(4-(Difluoromethyl)phenyl)-1-methyl-N-(methylsulfonyl)-1H-indole-6-carboxamide]",> 30,1010,262
"Cn1cc(-c2ccc(C(F)F)cc2)c2ccc(C(=O)NS(=O)(=O)C3CC3)cc21 [Example 31, N-(cyclopropylsulfonyl)-3-(4-(difluoromethyl)phenyl)-1-methyl-1H-indole-6-carboxamide]",> 30,321,69
"Cn1cc(-c2cnc(OCC3CC3)c(Cl)c2)c2ccc(C(=O)NS(C)(=O)=O)cc21 [Example 34, 3-(5-Chloro-6-(cyclopropylmethoxy)pyridin-3-yl)-1-methyl-N-(methylsulfonyl)-1H-indole-6-carboxamide]",8.37,270,189
"Cn1cc(-c2cnc(OCC3CC3)c(Cl)c2)c2ccc(C(=O)NS(=O)(=O)C3CC3)cc21 [Example 35, 3-(5-Chloro-6-(cyclopropylmethoxy)pyridin-3-yl)-N-(cyclopropylsulfonyl)-1-methyl-1H-indole-6-carboxamide]",15.1,52,86
"CCS(=O)(=O)NC(=O)c1ccc2c(-c3cnc(OCC(C)C)c(Cl)c3)cn(C)c2c1 [Example 36, 3-(5-Chloro-6-isobutoxypyridin-3-yl)-N-(ethylsulfonyl)-1-methyl-1H-indole-6-carboxamide]",5.67,38,154
"CC(C)COc1ncc(-c2cn(C)c3cc(C(=O)NS(=O)(=O)C(C)C)ccc23)cc1Cl [Example 37, 3-(5-Chloro-6-isobutoxypyridin-3-yl)-N-(isopropylsulfonyl)-1-methyl-1H-indole-6-carboxamide]",14,207,458
"CC(C)COc1ncc(-c2cn(C)c3cc(C(=O)NS(=O)(=O)C(C)(C)C)ccc23)cc1Cl [Example 38, N-(tert-butylsulfonyl)-3-(5-chloro-6-isobutoxypyridin-3-yl)-1-methyl-1H-indole-6-carboxamide]",21.9,156,1300
"CC(C)COc1ncc(-c2nn(C)c3cc(C(=O)NS(C)(=O)=O)ccc23)cc1Cl [Example 39, 3-(5-Chloro-6-isobutoxypyridin-3-yl)-1-methyl-N-(methylsulfonyl)-1H-indazole-6-carboxamide]",6.51,67,66
"CC(C)COc1ncc(-c2c3ccc(C(=O)NS(C)(=O)=O)cc3nn2C)cc1Cl [Example 40, 3-(5-Chloro-6-isobutoxypyridin-3-yl)-2-methyl-N-(methylsulfonyl)-2H-indazole-6-carboxamide]",16.7,1990,787
"CC(C)COc1ncc(-c2c3ccc(C(=O)NS(=O)(=O)C4CC4)cc3nn2C)cc1Cl [Example 41, 3-(5-Chloro-6-isobutoxypyridin-3-yl)-N-(cyclopropylsulfonyl)-2-methyl-2H-indazole-6-carboxamide]",11.3,673,195
